Results reported in the OligoGym collection.
“And” between values parts separate entries of the source, which are not always exact repeats. Identical values can stand only once. After the bases stand the sugars from the 5' end (letter, count) and the backbone: PS all phosphorothioate, else s phosphorothioate and o phosphodiester by linkage. Methylation of C is not given here. k = constrained ethyl (cEt); d = 2'-deoxy (DNA)

Target: MALAT1
Details: ASO, A431, 0.005 µM

Sequence	target mRNA inhibition
GCAGAGTTTGAGTGGT (sugars k3 d10 k3, PS)	-9%
TTACACATCCAAACTC (sugars k3 d10 k3, PS)	1%
CTACTGAAGAGCATTG (sugars k3 d10 k3, PS)	22%
AGGACTTGGCAGTCTG (sugars k3 d10 k3, PS)	30%
ATTCATGAGTATAAGC (sugars k3 d10 k3, PS)	29%
CTGGAAGCTCCTTCTA (sugars k3 d10 k3, PS)	25%
CCCCATATAAATCCCT (sugars k3 d10 k3, PS)	-7%
ACGGAGAACAACTCGC (sugars k3 d10 k3, PS)	1%
ACAATCAAGTCAAGCT (sugars k3 d10 k3, PS)	15%
CCCATAATTGTAGTTA (sugars k3 d10 k3, PS)	45%
TTTAATCATACTCCAG (sugars k3 d10 k3, PS)	24%
GAATTACTTCCGTTAC (sugars k3 d10 k3, PS)	36%
AATCACCTACAACTTT (sugars k3 d10 k3, PS)	26%
GCACTCATATGCAATT (sugars k3 d10 k3, PS)	6%
TAGCTTCCTTCACCAA (sugars k3 d10 k3, PS)	-1%
TGTAAACCTGTGGTGG (sugars k3 d10 k3, PS)	48%
AGGGACAGTAGGTATA (sugars k3 d10 k3, PS)	16%
CAGTAGGGCTTCTCAA (sugars k3 d10 k3, PS)	10%
AAGGTTACCATAAGTA (sugars k3 d10 k3, PS)	46%
TACATCAAGGATGTAT (sugars k3 d10 k3, PS)	2%
ACCACCACCTGGAATG (sugars k3 d10 k3, PS)	22%
ATGGATCATGCCCACA (sugars k3 d10 k3, PS)	12%
TTCCTTCGGATGCTTC (sugars k3 d10 k3, PS)	50%

Sequence	target mRNA inhibition
CCTTGAAACCGATTAT (sugars k3 d10 k3, PS)	36%
CTTCCCGTACTTCTGT (sugars k3 d10 k3, PS)	43%
CCGCTAAGATGCTAGC (sugars k3 d10 k3, PS)	20%
CCTTCCCTATATAAGG (sugars k3 d10 k3, PS)	-41%
ATCAGGTGAGGCTGAC (sugars k3 d10 k3, PS)	23%
TTCAGGATCATTAAGC (sugars k3 d10 k3, PS)	18%
TACTGAAAACTCCCCC (sugars k3 d10 k3, PS)	22%
CTGCGACTTGCTCCCA (sugars k3 d10 k3, PS)	10%
CATATTGCCGACCTCA (sugars k3 d10 k3, PS)	43%
TTATCTGCGGTTTCCT (sugars k3 d10 k3, PS)	45%
CCACTCTAAGATTGTA (sugars k3 d10 k3, PS)	40%
ATCCCTAACATGCAAT (sugars k3 d10 k3, PS)	23%
GCCTACCGCACAGCTC (sugars k3 d10 k3, PS)	26%
AACATATTTTGCCCCC (sugars k3 d10 k3, PS)	22%
CTAAGCAATATCTTAG (sugars k3 d10 k3, PS)	15%
GAGATTTGGGCTTTAT (sugars k3 d10 k3, PS)	34% and 33%
ACCTTCTAACTTCTGC (sugars k3 d10 k3, PS)	64% and 42%
TCTGTGCTAGATCAAA (sugars k3 d10 k3, PS)	61%
CGTAACAGGCCACTGC (sugars k3 d10 k3, PS)	2%
TCGCTTTTATTCTGCT (sugars k3 d10 k3, PS)	22%
TACCGTTTTTCAGCTT (sugars k3 d10 k3, PS)	-31%
GAACAACTCGCATCAC (sugars k3 d10 k3, PS)	15%
CTAAGATTGTAAGCAT (sugars k3 d10 k3, PS)	28%

Sequence	target mRNA inhibition
AGTATTATAATAGAGC (sugars k3 d10 k3, PS)	20%
TATTCCCCAATGGAGG (sugars k3 d10 k3, PS)	17%
GGATCCAAGCTACTGG (sugars k3 d10 k3, PS)	18%
AGCAGCGGGATCAGAA (sugars k3 d10 k3, PS)	19%
TCCGCTCAAATCCTGA (sugars k3 d10 k3, PS)	26%
GAGAAGAATCCCCCCC (sugars k3 d10 k3, PS)	17%
GAGGCTGACACTTCTC (sugars k3 d10 k3, PS)	-10%
TCAAGGTCTTTTAATC (sugars k3 d10 k3, PS)	41%
TAAATTGGTTACCAAT (sugars k3 d10 k3, PS)	25%
GTAAGAATTAAGACCA (sugars k3 d10 k3, PS)	37%
TAAAGAGTGTTCGCAG (sugars k3 d10 k3, PS)	51%
CTACACAATTTACATC (sugars k3 d10 k3, PS)	22%
CAAATTAATGCACTGG (sugars k3 d10 k3, PS)	15%
ATCCTCTACGCACAAC (sugars k3 d10 k3, PS)	42%
AACCGATTATGGATCA (sugars k3 d10 k3, PS)	49%
GGACTTTCTCCCCCAA (sugars k3 d10 k3, PS)	-5%
TCCAGGATTAATGTAG (sugars k3 d10 k3, PS)	48%
AAAGTGGTTGCCCGCT (sugars k3 d10 k3, PS)	15%
ATTACTCTTGATCTTG (sugars k3 d10 k3, PS)	71% and 56%
AATCCCCTAGGGAAGG (sugars k3 d10 k3, PS)	5%
AGTCTACAAGTTACAT (sugars k3 d10 k3, PS)	3%
CTCTGCAGTTTCTATA (sugars k3 d10 k3, PS)	31%
CTTGAAACCGATTATG (sugars k3 d10 k3, PS)	38%

Sequence	target mRNA inhibition
CACGGCCCGCACGGAA (sugars k3 d10 k3, PS)	-1%
TTCAGACAAGATTCAT (sugars k3 d10 k3, PS)	51% and 37%
ATTGGTATTAATTCGG (sugars k3 d10 k3, PS)	70% and 75% and 92%
GCCTCAATCCCACACC (sugars k3 d10 k3, PS)	2%
CCTTAAAGTTACATTC (sugars k3 d10 k3, PS)	33%
GTGCCTGGAATTATTA (sugars k3 d10 k3, PS)	39%
GAACCACAACAATTTA (sugars k3 d10 k3, PS)	19%
TCAGGCGAGCTGAGGC (sugars k3 d10 k3, PS)	7%
AGTAGGTATAGTTTAC (sugars k3 d10 k3, PS)	10%
CTAAGATAGCAGCACA (sugars k3 d10 k3, PS)	11%
AGCCTTCAGAGATTCA (sugars k3 d10 k3, PS)	75% and 91%
TACCATAAGTAAGTTC (sugars k3 d10 k3, PS)	4%
TTCTATAGTCTGAAGA (sugars k3 d10 k3, PS)	14%
GATCTGGTCCATTAAA (sugars k3 d10 k3, PS)	25%
GCAAAATGGCGGACTT (sugars k3 d10 k3, PS)	-4%
CCCCCATTATATTAGA (sugars k3 d10 k3, PS)	28%
AGTTACTTGCCAACTT (sugars k3 d10 k3, PS)	7%
GAAAGTGCCATGGTTG (sugars k3 d10 k3, PS)	41%
TCACAAAACCCCCGGA (sugars k3 d10 k3, PS)	16%
AGTTTGTCAATAGTAC (sugars k3 d10 k3, PS)	42%
TCCAAGCTACTGGCTG (sugars k3 d10 k3, PS)	20%
ACCTTGAGTCATTTGC (sugars k3 d10 k3, PS)	66%
GGCTTTAAATGACGCA (sugars k3 d10 k3, PS)	17%

Sequence	target mRNA inhibition
AAGGATCCAAGCTACT (sugars k3 d10 k3, PS)	8%
CCCGGAAATCGGCCTA (sugars k3 d10 k3, PS)	0%
TTAATGTCAGCCCAGT (sugars k3 d10 k3, PS)	37%
AATAAGCACTTATCCC (sugars k3 d10 k3, PS)	31%
GCCCCCCAGTTGCCGC (sugars k3 d10 k3, PS)	-35%
TTCGGTTAAAAATAGG (sugars k3 d10 k3, PS)	-7%
GTGTGGTTGCCAAGCC (sugars k3 d10 k3, PS)	43% and 37% and 50%
TTAAGACCAAGGGAGG (sugars k3 d10 k3, PS)	29%
GATGTATATAGTTCAA (sugars k3 d10 k3, PS)	7%
ACTCCAAGAACTAGCA (sugars k3 d10 k3, PS)	11%
TACCTTGAAACCGATT (sugars k3 d10 k3, PS)	36%
ATAATAGAGCTACTTA (sugars k3 d10 k3, PS)	19%
CTCTTGAGGGACAGTA (sugars k3 d10 k3, PS)	4%
TTGCTCACATGCCAGT (sugars k3 d10 k3, PS)	40%
ATCTCAACCTCCGTCA (sugars k3 d10 k3, PS)	34%
AGCCAAGCCGCCTGCT (sugars k3 d10 k3, PS)	20%
ATTTTAAACGGGTCAT (sugars k3 d10 k3, PS)	7%
CAACTGGAAGCTCCTT (sugars k3 d10 k3, PS)	23%
ACTTTTAATCATACTC (sugars k3 d10 k3, PS)	21%
CGAAGAGATACCTGTC (sugars k3 d10 k3, PS)	23%
TGTACTATCCCATCAC (sugars k3 d10 k3, PS)	51% and 71%
TGCTGTTACCTCCCAC (sugars k3 d10 k3, PS)	14%
